According to patent publication US12533385B2, “Use of mulberry twig alkaloids in preparation of drug for treating polycystic ovarian syndrome” (priority 2022, dated 2026):

Test system: LZ+HFD-induced PCOS model
Test: Pharmacodynamic experiment of mulberry extract on LZ+HFD-induced PCOS model (Experimental Example 11, incl. expanded scale)
Assay type: in vivo, SD rats
Settings: Met. 125 mg/kg/d, expanded scale 18 rats/group, monitored 10 days from day 10 of treatment; model group 97%, blank about 59%
Method: Test methods for the hormones are as follows: • E2: estradiol radioimmunoassay KIT—HTA Co., Ltd. (SFDA approval No.: 520033010); • LH: Iodine[^125I] Human Luteinizing Hormone Radioimmunoassay Kit (SFDA approval No.: 510950161); • PRL: Iodine[^125I] Prolactin Radioimmunoassay Kit (SFDA approval No.: S10950161); • T: Iodine[^125I] Testosterone Radioimmunoassay Kit (SFDA approval No.: S10940093); • ADP, GnRH, SHBG, and AMH in serum of each animal were tested using Elisa kits; • P: Progesterone Radioimmunoassay Kit—Union Medical & Pharmaceutical Technology (Tianjin) Co., Ltd. (SFDA approval No.: S10950202).
The drugs were formulated as same as in Experimental Example 10.
Eighteen 3-week-old female SD rats with good health and shiny fur were selected and adaptively fed for 3 days, and then randomized into a blank group, a model group, and a dosing group. After fed with high-fat diets for 3 weeks, the rats in the model group and the dosing group were administered with LZ (1 mg/kg/d) via gavage for 6 weeks, while being fed with HFD (high-fat diets (research diets D12492)), and the PCOS rat models were constructed. After the models were evaluated as success, the rats in the dosing group were administered according to the dosage and mode listed in the table, during which an equal amount of normal saline was given to the blank group and the model group. […]

For `CN(C)C(=N)N=C(N)N` [Met., Metformin], the “share of diestrus/metestrus in the estrous cycle” value was 74%.
